Data as given in PubChem BioAssay AID248 (DTP/NCI, 2004).
Several values for one entry are separate records, joined by “and”; a condition that tells them apart may be missing. Equal values may be shown once. Toxic doses and inconclusive results are not listed. No stated cut-off is given here; in the data, active means T/C of 150% or more; inactive means T/C below 125%.

Test system: L1210 leukemia ip in BDF1 mice, survival T/C
Assay: NCI In Vivo Anticancer Drug Screen. Data for tumor model L1210 Leukemia (intraperitoneal) in B6D2F1 (BDF1) mice
Details: endpoint: mean survival time, higher = longer survival
How it was run: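 Antitumor effect is assessed in tumor-bearing animals. Survival in the compound arm is compared with a vehicle-dosed control arm and expressed as their quotient.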

[1] = dose: 50.0 mg/kg/injection, schedule: Q01DX009 (ip), vehicle: saline
[2] = dose: 100.0 mg/kg/injection, schedule: Q01DX009 (ip), vehicle: saline
[3] = dose: 100.0 mg/kg/injection, schedule: Q04DX002 (ip), vehicle: saline
[4] = dose: 100.0 mg/kg/injection, schedule: Q01DX001 (ip), vehicle: saline with Tween-80
[5] = dose: 100.0 mg/kg/injection, schedule: Q01DX009 (ip), vehicle: saline with Tween-80
[6] = dose: 200.0 mg/kg/injection, schedule: Q01DX001 (ip), vehicle: saline with Tween-80
[7] = dose: 200.0 mg/kg/injection, schedule: Q01DX009 (ip), vehicle: saline with Tween-80
[8] = dose: 200.0 mg/kg/injection, schedule: Q04DX003 (ip), vehicle: saline with Tween-80
[9] = dose: 400.0 mg/kg/injection, schedule: Q01DX001 (ip), vehicle: saline with Tween-80
[10] = dose: 400.0 mg/kg/injection, schedule: Q04DX003 (ip), vehicle: saline with Tween-80
[11] = dose: 100.0 mg/kg/injection, schedule: Q04DX003 (ip), vehicle: saline
[12] = dose: 200.0 mg/kg/injection, schedule: Q04DX003 (ip), vehicle: saline
[13] = dose: 50.0 mg/kg/injection, schedule: Q01DX009 (ip), vehicle: saline with Tween-80
[14] = dose: 100.0 mg/kg/injection, schedule: Q04DX003 (ip), vehicle: saline with Tween-80
[15] = dose: 100.0 mg/kg/injection, schedule: Q01DX009 (ip), vehicle: Klucel (hydroxypropylcellulose) (HPC)
[16] = dose: 200.0 mg/kg/injection, schedule: Q01DX009 (ip), vehicle: Klucel (hydroxypropylcellulose) (HPC)
[17] = dose: 400.0 mg/kg/injection, schedule: Q01DX009 (ip), vehicle: Klucel (hydroxypropylcellulose) (HPC)
[18] = dose: 100.0 mg/kg/injection, schedule: Q04DX002 (ip), vehicle: Klucel (hydroxypropylcellulose) (HPC)
[19] = dose: 200.0 mg/kg/injection, schedule: Q04DX002 (ip), vehicle: Klucel (hydroxypropylcellulose) (HPC)
[20] = dose: 400.0 mg/kg/injection, schedule: Q04DX002 (ip), vehicle: Klucel (hydroxypropylcellulose) (HPC)
[21] = dose: 100.0 mg/kg/injection, schedule: Q01DX001 (ip), vehicle: carboxymethylcellulose (CMC)
[22] = dose: 200.0 mg/kg/injection, schedule: Q01DX001 (ip), vehicle: carboxymethylcellulose (CMC)
[23] = dose: 400.0 mg/kg/injection, schedule: Q01DX001 (ip), vehicle: carboxymethylcellulose (CMC)
[24] = dose: 75.0 mg/kg/injection, schedule: Q01DX001 (ip), vehicle: saline

Measured: T/C

CC(C)(CO)CO
inactive: dose: 25.0 mg/kg/injection, schedule: Q01DX009 (ip), vehicle: saline 97 % of control | dose: 25.0 mg/kg/injection, schedule: Q04DX002 (ip), vehicle: saline 113 % of control | [1] 108 % of control | dose: 50.0 mg/kg/injection, schedule: Q04DX002 (ip), vehicle: saline 102 % of control | [2] 105 % of control | [3] 102 % of control and 103 % of control

Nc1nc(NCCCc2ccccc2)c(N=Nc2ccccc2)c(=O)[nH]1
inactive: [4] 106 % of control | [5] 98 % of control and 100 % of control | dose: 100.0 mg/kg/injection, schedule: Q04DX002 (ip), vehicle: saline with Tween-80 94 % of control | [6] 107 % of control | [7] 93 % of control and 98 % of control | dose: 200.0 mg/kg/injection, schedule: Q04DX002 (ip), vehicle: saline with Tween-80 93 % of control and 89 % of control | [8] 86 % of control | [9] 104 % of control | dose: 400.0 mg/kg/injection, schedule: Q04DX002 (ip), vehicle: saline with Tween-80 94 % of control and 89 % of control | [10] 86 % of control

NCCc1cc(O)c(O)c(O)c1
inactive: [1] 104 % of control | [2] 113 % of control

CCCCCCCCCCCCCCCC(=O)N(CCC#N)CCCCCCCCCN(CCC#N)C(=O)CCCCCCCCCCCCCCC
inactive: [2] 86 % of control | [11] 94 % of control | [12] 87 % of control | dose: 400.0 mg/kg/injection, schedule: Q01DX009 (ip), vehicle: saline 91 % of control | dose: 400.0 mg/kg/injection, schedule: Q04DX003 (ip), vehicle: saline 92 % of control

O=C1C(N2CCOCC2)=Cc2cccc3cccc1c23
inactive: [13] 103 % of control | [5] 97 % of control | [14] 92 % of control | [7] 97 % of control and 90 % of control | [8] 97 % of control

C=C(C)CC(O)CCCCC (stereo not given)
inactive: [3] 98 % of control | dose: 200.0 mg/kg/injection, schedule: Q04DX002 (ip), vehicle: saline 102 % of control | dose: 400.0 mg/kg/injection, schedule: Q04DX002 (ip), vehicle: saline 98 % of control

COc1cccc(NC(=O)NCc2ccco2)c1
inactive: [15] 106 % of control | [16] 108 % of control | [17] 103 % of control

O=[N+]([O-])c1ccc(-c2ccc([N+](=O)[O-])c(-c3ccccc3)c2)cc1
inactive: [14] 93 % of control | [8] 88 % of control

O=C(CCc1ccc(O)cc1)c1ccccc1
inactive: [18] 97 % of control | [19] 87 % of control | [20] 94 % of control

CCOC(=O)C(C)(C)C(O)C(C)C (stereo not given)
inactive: [5] 106 % of control | [7] 103 % of control | dose: 400.0 mg/kg/injection, schedule: Q01DX009 (ip), vehicle: saline with Tween-80 93 % of control

CC1C(=O)CC(=O)C1=O (stereo not given)
inactive: dose: 50.0 mg/kg/injection, schedule: Q01DX009 (ip), vehicle: saline sonified 104 % of control | dose: 100.0 mg/kg/injection, schedule: Q01DX009 (ip), vehicle: saline sonified 117 % of control | [11] 100 % of control | dose: 200.0 mg/kg/injection, schedule: Q01DX009 (ip), vehicle: saline sonified 104 % of control | [12] 100 % of control

CCOC(=O)c1ccc(OC(=O)Nc2ccc(OC)cc2OC)cc1
inactive: [15] 101 % of control

CC1(Cl)C(=O)NN=C1c1ccc([N+](=O)[O-])cc1 (stereo not given)
inactive: [21] 102 % of control | [22] 102 % of control | [23] 105 % of control

C/C(Cc1c[nH]c2ccccc12)=N/NC(N)=S
inactive: dose: 50.0 mg/kg/injection, schedule: Q01DX001 (ip), vehicle: saline 100 % of control | dose: 100.0 mg/kg/injection, schedule: Q01DX001 (ip), vehicle: saline 100 % of control

O=C(CCN1CC2CCC(CC2)C1)c1csc2ccccc12
inactive: dose: 88.8 mg/kg/injection, schedule: Q01DX001 (ip), vehicle: carboxymethylcellulose (CMC) 93 % of control | [21] 91 % of control | dose: 133.4 mg/kg/injection, schedule: Q01DX001 (ip), vehicle: carboxymethylcellulose (CMC) 98 % of control | [22] 97 % of control | dose: 300.0 mg/kg/injection, schedule: Q01DX001 (ip), vehicle: carboxymethylcellulose (CMC) 95 % of control | [23] 107 % of control

O=C(Cc1ccccc1)NC1=C(NCc2ccccc2)C(=O)c2ccccc2C1=O
inactive: [14] 105 % of control | [8] 98 % of control | [10] 96 % of control

O=C(NCCc1cnc[nH]1)C(F)(F)F
inactive: [1] 96 % of control | [2] 96 % of control | dose: 200.0 mg/kg/injection, schedule: Q01DX009 (ip), vehicle: saline 100 % of control

O=C(C=C(C(F)(F)F)C(F)(F)F)c1ccc(-c2ccccc2)cc1
inactive: dose: 25.0 mg/kg/injection, schedule: Q01DX009 (ip), vehicle: saline with Tween-80 98 % of control | [13] 98 % of control | dose: 50.0 mg/kg/injection, schedule: Q04DX003 (ip), vehicle: saline with Tween-80 92 % of control | [14] 87 % of control | [8] 86 % of control

O=C1c2cscc2C(=O)c2sccc21
inactive: [4] 100 % of control | [6] 102 % of control | [9] 96 % of control

NC(=O)N1Cc2ccccc2Cc2ccccc2C1
inactive: [15] 101 % of control | [16] 92 % of control | [17] 95 % of control

NC(CCl)CCl
inactive: dose: 12.5 mg/kg/injection, schedule: Q01DX Z (ip), vehicle: other 92 % of control | dose: 25.0 mg/kg/injection, schedule: Q01DX Z (ip), vehicle: other 100 % of control | dose: 100.0 mg/kg/injection, schedule: Q01DX Z (ip), vehicle: other 94 % of control

C1=CC2CC1CC2/C=N\N=C\C1CC2C=CC1C2 (stereo not given)
inactive: [18] 118 % of control | [19] 121 % of control

CC(C(O)c1ccccc1)[n+]1ccccc1 (stereo not given)
inactive: [24] 102 % of control

O=C1CCCCCCCCCCCCCCCO1
inactive: [18] 90 % of control | [19] 93 % of control | [20] 93 % of control

COc1ccc2c(c1C)CCC13CC(C)C(CC21)OC3=O (stereo not given)
inactive: dose: 100.0 mg/kg/injection, schedule: Q01DX001 (ip), vehicle: Klucel (hydroxypropylcellulose) (HPC) 102 % of control | dose: 200.0 mg/kg/injection, schedule: Q01DX001 (ip), vehicle: Klucel (hydroxypropylcellulose) (HPC) 101 % of control | dose: 400.0 mg/kg/injection, schedule: Q01DX001 (ip), vehicle: Klucel (hydroxypropylcellulose) (HPC) 109 % of control

CCOP(=O)(OCC)C1=C(CC)CC1
inactive: dose: 9.5 mg/kg/injection, schedule: Q01DX001 (ip), vehicle: other 109 % of control | dose: 19.0 mg/kg/injection, schedule: Q01DX001 (ip), vehicle: other 111 % of control | dose: 38.0 mg/kg/injection, schedule: Q01DX001 (ip), vehicle: other 106 % of control

C[N+](C)(C)CCC(=O)c1ccccc1
inactive: dose: 12.5 mg/kg/injection, schedule: Q04DX003 (ip), vehicle: saline 97 % of control | dose: 25.0 mg/kg/injection, schedule: Q04DX003 (ip), vehicle: saline 100 % of control | dose: 50.0 mg/kg/injection, schedule: Q04DX003 (ip), vehicle: saline 94 % of control | [24] 102 % of control

Cc1ccc(NCc2ccccc2O)c(C)c1
inactive: dose: 100.0 mg/kg/injection, schedule: Q04DX003 (ip), vehicle: gum acacia 94 % of control | dose: 200.0 mg/kg/injection, schedule: Q04DX003 (ip), vehicle: gum acacia 101 % of control | dose: 400.0 mg/kg/injection, schedule: Q04DX003 (ip), vehicle: gum acacia 99 % of control

CS(=O)(=O)Oc1c(Cl)cc(S(=O)(=O)F)cc1Cl
inactive: [15] 104 % of control | [16] 102 % of control
